Reference: patent EP0637588A1, “ACTIVE OXYGEN INHIBITOR COMPOSITION” (SHISEIDO COMPANY LIMITED, priority 1993, dated 1994)

Tested on: polymorphonuclear leukocyte (PMNs)
Assay: Suppressing action on production of active oxygen from neutrophils (OPZ-stimulated, FCLA dependent chemiluminescence)
Assay type: cell-based, white Japanese rabbit
Conditions: Oryctolagus cuniculus, PMNs stimulated by opsonized zymosan (OPZ), 37°C, read-out: Suppressing Action on Production of Active Oxygen (Suppressive Rate %)
Description: A 400 mL amount of physiological saline solution containing 0.2% glycogen was administered by drip into the abdominal cavity of a white Japanese rabbit having about 3 kg body weight without anesthesia. After 16 hours, 400 ml of sterilized physiological saline solution was administered, the cavity was massaged well, then the ascites was sampled. This was centrifuged at 100 × g to obtain a precipitate which was then suspended in a Hanks Balanced Salt Solution (HBSS) and adjusted to 5 x 10⁵ cells/mL. This was used as the polymorphonuclear leukocyte (PMNs) fraction. The action on the production of active oxygen by opsonized zymosan (OPZ) was studied as follows: To PMNs (480 µl) were added 3,7-dihydro-6-[4-[2-(N'-(5-fluoresceinyl)thioureid)ethoxy]phenyl]-2-methylimidazo[1,2-a]pyradine-3-on·sodium salt (FCLA) (2 µM) and various concentrations of test compounds. The resulting mixture was incubated at 37°C for 10 minutes, OPZ was added in an amount of 5 µL, and then the FCLA dependent chemiluminescence was measured using a photon counter (made by BertHold of Germany) under a constant temperature of 37°C along with the elapse of time.

`O=C1O[C@H]([C@@H](O)CO)C(O)=C1O` [Ascorbic acid] showed an inhibition at 0.1 µM (Concentration 0.1 µM) of 20.1%, an inhibition at 1 µM (Concentration 1.0 µM) of 51.7% and an inhibition at 10 µM (Concentration 10 µM) of 86.8%.
